Measured values published in US6191153A, “Use of 2-amino-6-n-propyl-amino-4,5,6,7-tetrahydrobenzothiazole as a pharmaceutical composition having an antidepressant activity” (Boehringer Ingelheim KG, priority 1992, dated 2001).

Legend:
[1] = system: rats; assay: Forced swimming test (immobility time, antidepressant activity); format: in vivo; settings: parenteral, eight rats
Protocol: Details of this behavioural test are described for example by Willner, Psychopharmacology 83, 1-16 (1984) and by Borsini and Meli, Psychopharmacology 94, 147-160 (1988).
Pramipexol (SND 919) was investigated on eight rats, by comparison with amineptine, a known antidepressant. Both substances were dissolved in physiological saline solution and administered by parenteral route.

[2] = in vivo
[3] = in vivo; remark: listed apart in the source

SMILES: O=C(O)CCCCCCNC1c2ccccc2CCc2ccccc21 [Amineptine, reference compound]
- Immobility time ([1]; dose 20.00 mg/kg): 134 ± 19 s

SMILES: CCCN[C@H]1CCc2nc(N)sc2C1 [SND 919, 2-amino-6-n-propyl-amino-4,5,6,7-tetrahydrobenzothiazole]
- tolerability [2]: extremely well tolerated
- Immobility time ([1]; dose 0.03 mg/kg): 210 ± 14 s
- Immobility time ([1]; dose 0.10 mg/kg): 165 ± 6 s
- Immobility time ([1]; dose 0.30 mg/kg): 102 ± 17 s
- bioavailability [3]: > 80%
- half-life [3]: 12.5 h
